Reference: patent US8440590B2, “Method for controlling soybean rust” (priority 2006, dated 2013)

Columns and labels:
Type in all cases: in vivo
[1] = tested on: soybean cv. S-40-R9 (RR-soybean); assay: Crop tolerance test (germination after seed treatment), cv. S-40-R9
Description: (§1) Fifty soybean seeds of cv. S-40-R9 (RR-soybean) or cv. Williams (not GM) are sown 2 cm deep into trays filled with quarz sand. Seeds are treated prior to sowing with the formulated ais. The plants are grown at 20-23° C. in a greenhouse. If necessary, artificial lighting is supplied to give a 14 hr day.
(§2) Plant emergence 6 DAS and final stand 11 DAS is counted.

[2] = tested on: soybean cv. Williams (not GM); assay: Crop tolerance test (germination after seed treatment), cv. Williams
Description: as §1, §2

Phakopsora pachyrhizi [3] = assay: Test for rust activity, leaf discs from seed-treated plants, cv. S-40-R9; conditions: 11 DAI
Description: as §1
(§3) For the soybean rust assay, plants are transplanted 13 DAS into 8 cm pots filled with soil. 13 days after transplanting leaf discs are cut from the first and second true leaves and transferred to multiwell plates filled with water agar. 1 day later the leaf discs are inoculated with Phakopsora pachyrhizi. Assessment of the disease incidence is done 11 DAI (days after inoculation).

Phakopsora pachyrhizi [4] = assay: Test for rust activity, leaf discs from seed-treated plants, cv. Williams; conditions: 11 DAI
Description: as §1, §3

[5] = GA seed treatment 1 g ai/100 kg
[6] = GA seed treatment 2 g ai/100 kg
[7] = GA seed treatment 1 g ai/100 kg, cv. S-40-R9, fifty seeds sown
[8] = GA seed treatment 2 g ai/100 kg, cv. S-40-R9, fifty seeds sown
[9] = GA seed treatment 1 g ai/100 kg, cv. Williams, fifty seeds sown
[10] = GA seed treatment 2 g ai/100 kg, cv. Williams, fifty seeds sown

CC(C1CC1)C(O)(Cn1cncn1)c1ccc(Cl)cc1 (stereo not shown) [Cyproconazole (CCZ), cyproconazole]
Effect on plant numbers and size (phytotoxicity) ([1]; in vivo): severe reductions in plant numbers and size
Germination % Emergence 6 DAS ([1]; in vivo): 0%
Germination Count 6 DAS ([1]; in vivo): 0
Germination % Emergence 6 DAS ([2]; in vivo): 0%
Germination Count 6 DAS ([2]; in vivo): 0

C=C1C[C@]23C[C@@]1(O)CC[C@H]2[C@@]12C=C[C@H](O)[C@@](C)(C(=O)O1)[C@H]2[C@@H]3C(=O)O [Gibberelic acid (GA), gibberellic acid (gibberellin A3)]
1st Leaf % Activity (Phakopsora pachyrhizi [3]; [5]): 0.0%
1st Leaf % Disease (Phakopsora pachyrhizi [3]; [5]): 87.8%
2nd Leaf % Activity (Phakopsora pachyrhizi [3]; [5]): 0.0%
2nd Leaf % Disease (Phakopsora pachyrhizi [3]; [5]): 71.1%
1st Leaf % Activity (Phakopsora pachyrhizi [3]; [6]): 0.0%
1st Leaf % Disease (Phakopsora pachyrhizi [3]; [6]): 82.8%
2nd Leaf % Activity (Phakopsora pachyrhizi [3]; [6]): 0.0%
2nd Leaf % Disease (Phakopsora pachyrhizi [3]; [6]): 68.9%
1st Leaf % Activity (Phakopsora pachyrhizi [4]; [5]): 0.0%
1st Leaf % Disease (Phakopsora pachyrhizi [4]; [5]): 88.9%
2nd Leaf % Activity (Phakopsora pachyrhizi [4]; [5]): 32.4%
2nd Leaf % Disease (Phakopsora pachyrhizi [4]; [5]): 48.3%
1st Leaf % Activity (Phakopsora pachyrhizi [4]; [6]): 0.0%
1st Leaf % Disease (Phakopsora pachyrhizi [4]; [6]): 87.2%
2nd Leaf % Activity (Phakopsora pachyrhizi [4]; [6]): 28.4%
2nd Leaf % Disease (Phakopsora pachyrhizi [4]; [6]): 51.1%
Germination % Emergence 6 DAS [1, 7]: 100%
Germination % Final Stand 11 DAS [1, 7]: 100%
Germination Count 6 DAS [1, 7]: 50
Germination Count 11 DAS [1, 7]: 50
Germination % Emergence 6 DAS [1, 8]: 96%
Germination % Final Stand 11 DAS [1, 8]: 96%
Germination Count 6 DAS [1, 8]: 48
Germination Count 11 DAS [1, 8]: 48
Germination % Emergence 6 DAS [2, 9]: 100%
Germination % Final Stand 11 DAS [2, 9]: 100%
Germination Count 6 DAS [2, 9]: 50
Germination Count 11 DAS [2, 9]: 50
Germination % Emergence 6 DAS [2, 10]: 98%
Germination % Final Stand 11 DAS [2, 10]: 98%
Germination Count 6 DAS [2, 10]: 49
Germination Count 11 DAS [2, 10]: 49
